Results on three compounds are retold here after PMC7582770, “Synthesis of “All-Cis” Trihydroxypiperidines from a Carbohydrate-Derived Ketone: Hints for the Design of New β-Gal and GCase Inhibitors” (Molecules, 2020).

The target in data set [1] is T1, amyloglucosidase EC 3.2.1.3 (Aspergillus niger, UniProt P69328).
T1 construct: purchased Sigma-Aldrich or Megazyme Ltd
The experiment in a line: Commercial glycosidase screening. The class given is biochemical. Conditions: 0.1 mM inhibitor. The source says: (§1) A panel of 12 commercial glycosidases (α-L-fucosidase EC 3.2.1.51 from Homo sapiens, α-galactosidase EC 3.2.1.22 from coffee beans, β-galactosidases EC 3.2.1.23 from Escherichia coli and Aspergillus oryzae, α-glucosidases EC 3.2.1.20 from yeast and rice, amyloglucosidase EC 3.2.1.3 from Aspergillus niger, β-glucosidase EC 3.2.1.21 from almonds, α-mannosidase EC 3.2.1.24 from Jack beans, β-mannosidase EC 3.2.1.25 from snail, β-N-acetylglucosaminidases EC 3.2.1.52 from Jack beans and bovine kidney) purchased from Sigma-Aldrich (St. Louis, MO, USA) or Megazyme Ltd. (Bray, Co. Wicklow, Ireland) was screened.
(§2) The percentage (%) of inhibition towards the corresponding glycosidase was determined in quadruplicate in the presence of 100 μM of the inhibitor on the well. Each enzymatic assay (final volume 0.12 mL) contains 0.01–0.5 units/mL of the enzyme (with previous calibration) and 4.2 mM aqueous solution of the appropriate p-nitrophenyl glycopyranoside (substrate) buffered to the optimal pH of the enzyme. Enzyme and inhibitor were preincubated for 5 min at room temperature, and the reaction started by addition of the substrate. After 20 min of incubation at 37 °C, the reaction was stopped by the addition of 0.1 mL of sodium borate solution (pH 9.8). The p-nitrophenolate formed was measured by visible absorption spectroscopy at 405 nm (Asys Expert 96 spectrophotometer, Biochrom Ltd., Cambridge, England). Under these conditions, the p-nitrophenolate released led to optical densities linear with both reaction time and concentration of the enzyme (for more details, see the Supplementary Materials). The IC50 value (concentration of inhibitor required for 50% inhibition of enzyme activity) was determined from plots of % inhibition vs. different inhibitor concentrations. Each point of the graph is the average of four measures. The standard deviation for each point has been also represented in the graph.

The target of data set [2] is T2, α-mannosidase EC 3.2.1.24 (Canavalia ensiformis, UniProt C0HJB3).
T2 construct: purchased Sigma-Aldrich or Megazyme Ltd
T2 sequence (C0HJB3 1-981): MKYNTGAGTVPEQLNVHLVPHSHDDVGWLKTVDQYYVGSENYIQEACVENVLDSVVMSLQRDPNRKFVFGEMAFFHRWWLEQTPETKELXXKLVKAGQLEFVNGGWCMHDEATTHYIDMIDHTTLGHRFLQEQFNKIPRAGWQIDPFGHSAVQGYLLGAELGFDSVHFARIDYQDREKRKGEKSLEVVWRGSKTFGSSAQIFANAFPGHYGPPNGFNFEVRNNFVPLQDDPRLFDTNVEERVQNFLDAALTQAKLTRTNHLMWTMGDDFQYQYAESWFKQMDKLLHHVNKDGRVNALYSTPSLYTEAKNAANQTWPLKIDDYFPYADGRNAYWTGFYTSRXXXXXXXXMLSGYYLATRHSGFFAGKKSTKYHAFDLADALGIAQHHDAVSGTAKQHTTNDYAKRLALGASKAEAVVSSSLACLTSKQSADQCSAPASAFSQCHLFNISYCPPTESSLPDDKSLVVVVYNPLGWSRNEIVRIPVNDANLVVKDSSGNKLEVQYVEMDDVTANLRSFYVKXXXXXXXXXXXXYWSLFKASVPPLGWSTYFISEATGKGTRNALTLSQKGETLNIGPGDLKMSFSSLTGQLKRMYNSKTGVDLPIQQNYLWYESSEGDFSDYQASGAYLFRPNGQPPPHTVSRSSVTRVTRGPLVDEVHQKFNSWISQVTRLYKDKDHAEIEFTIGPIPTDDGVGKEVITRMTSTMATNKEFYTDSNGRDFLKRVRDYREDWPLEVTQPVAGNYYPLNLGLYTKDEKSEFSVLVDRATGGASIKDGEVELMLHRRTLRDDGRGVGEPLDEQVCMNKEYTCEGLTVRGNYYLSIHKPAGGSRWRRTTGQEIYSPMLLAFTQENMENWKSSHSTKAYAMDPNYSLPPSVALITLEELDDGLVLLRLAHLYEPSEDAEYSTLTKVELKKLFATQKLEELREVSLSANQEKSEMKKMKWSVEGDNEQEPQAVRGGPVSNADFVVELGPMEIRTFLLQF
The experiment in a line: Commercial glycosidase screening. Format: biochemical. The conditions noted are these: 0.1 mM inhibitor; read-out: % Inhibition at 0.1 mM, α-mannosidase Jack beans.
From the text: as §1, §2

Data set [3] concerns the target T3, β-galactosidase EC 3.2.1.23 (Aspergillus oryzae, UniProt Q2UCU3).
T3 construct: purchased Sigma-Aldrich or Megazyme Ltd
The experiment in a line: Commercial glycosidase screening. Format: biochemical. The conditions noted are these: 0.1 mM inhibitor.
From the text: as §1, §2

Data set [4] addresses T4, β-galactosidase EC 3.2.1.23 (Escherichia coli, UniProt P00722).
T4 construct: purchased Sigma-Aldrich or Megazyme Ltd
The experiment in a line: Commercial glycosidase screening. Format: biochemical. The conditions noted are these: read-out: % Inhibition at 0.1 mM, β-galactosidase Escherichia coli.
From the text: as §1, §2

The subject of data set [5] is human fibroblasts derived from Gaucher patients. The experiment in a line: Toxicity / cell viability in Gaucher patient fibroblasts during chaperoning assay. The class given is cell-based. The conditions noted are these: at 50 and 100 µM, 4 days. The protocol: Fibroblasts with the N370S/RecNcil mutation from patients with Gaucher disease were obtained from the “Cell line and DNA Biobank from patients affected by Genetic Diseases” (Gaslini Hospital, Genova, Italy). Fibroblasts cells (15.0 × 10^4) were seeded in T25 flasks with DMEM supplemented with fetal bovine serum (10%), penicillin/streptomycin (1%), and glutamine (1%) and incubated at 37 °C with 5% CO2 for 24 h. The medium was removed, and fresh medium containing compound 10 was added to the cells and left for 4 days. The medium was removed, and the cells were washed with PBS and detached with trypsin to obtain cell pellets, which were washed four times with PBS, frozen, and lysed by sonication in water. Enzyme activity was measured as reported above. Reported data are mean S.D. (n = 2).
Pharmacological chaperoning activity
Fibroblasts with the N370S/RecNcil mutation from Gaucher disease patients were obtained from the “Cell line and DNA Biobank from patients affected by Genetic Diseases” (Gaslini Hospital, Genova, Italy). Fibroblasts cells (20.0 x 104) were seeded in T25 flasks with DMEM supplemented with fetal bovine serum (10%), penicillin/streptomycin (1%), and glutamine (1%) and incubated at 37 °C with 5% CO2 for 24 h. […] Enzyme activity was measured as reported above. […]

Entries after “also recorded” stand apart in the source; their conditions may differ.

T1 sequence (P69328 25-640): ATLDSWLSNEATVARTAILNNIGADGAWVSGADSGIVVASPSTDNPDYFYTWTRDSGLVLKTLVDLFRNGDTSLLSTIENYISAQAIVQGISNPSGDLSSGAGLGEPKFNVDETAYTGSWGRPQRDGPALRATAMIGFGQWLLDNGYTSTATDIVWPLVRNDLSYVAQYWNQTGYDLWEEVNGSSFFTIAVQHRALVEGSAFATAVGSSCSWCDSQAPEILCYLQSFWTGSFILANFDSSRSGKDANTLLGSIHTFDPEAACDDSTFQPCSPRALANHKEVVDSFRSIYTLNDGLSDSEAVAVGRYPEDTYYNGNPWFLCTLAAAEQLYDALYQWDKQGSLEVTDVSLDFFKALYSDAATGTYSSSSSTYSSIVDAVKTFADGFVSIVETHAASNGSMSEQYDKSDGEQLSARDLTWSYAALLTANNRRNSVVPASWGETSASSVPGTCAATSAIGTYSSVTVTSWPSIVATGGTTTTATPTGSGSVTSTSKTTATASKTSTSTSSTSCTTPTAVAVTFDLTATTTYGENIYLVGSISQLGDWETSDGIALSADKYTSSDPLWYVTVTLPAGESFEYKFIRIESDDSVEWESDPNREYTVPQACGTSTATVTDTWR
T4 sequence (P00722 2-1024): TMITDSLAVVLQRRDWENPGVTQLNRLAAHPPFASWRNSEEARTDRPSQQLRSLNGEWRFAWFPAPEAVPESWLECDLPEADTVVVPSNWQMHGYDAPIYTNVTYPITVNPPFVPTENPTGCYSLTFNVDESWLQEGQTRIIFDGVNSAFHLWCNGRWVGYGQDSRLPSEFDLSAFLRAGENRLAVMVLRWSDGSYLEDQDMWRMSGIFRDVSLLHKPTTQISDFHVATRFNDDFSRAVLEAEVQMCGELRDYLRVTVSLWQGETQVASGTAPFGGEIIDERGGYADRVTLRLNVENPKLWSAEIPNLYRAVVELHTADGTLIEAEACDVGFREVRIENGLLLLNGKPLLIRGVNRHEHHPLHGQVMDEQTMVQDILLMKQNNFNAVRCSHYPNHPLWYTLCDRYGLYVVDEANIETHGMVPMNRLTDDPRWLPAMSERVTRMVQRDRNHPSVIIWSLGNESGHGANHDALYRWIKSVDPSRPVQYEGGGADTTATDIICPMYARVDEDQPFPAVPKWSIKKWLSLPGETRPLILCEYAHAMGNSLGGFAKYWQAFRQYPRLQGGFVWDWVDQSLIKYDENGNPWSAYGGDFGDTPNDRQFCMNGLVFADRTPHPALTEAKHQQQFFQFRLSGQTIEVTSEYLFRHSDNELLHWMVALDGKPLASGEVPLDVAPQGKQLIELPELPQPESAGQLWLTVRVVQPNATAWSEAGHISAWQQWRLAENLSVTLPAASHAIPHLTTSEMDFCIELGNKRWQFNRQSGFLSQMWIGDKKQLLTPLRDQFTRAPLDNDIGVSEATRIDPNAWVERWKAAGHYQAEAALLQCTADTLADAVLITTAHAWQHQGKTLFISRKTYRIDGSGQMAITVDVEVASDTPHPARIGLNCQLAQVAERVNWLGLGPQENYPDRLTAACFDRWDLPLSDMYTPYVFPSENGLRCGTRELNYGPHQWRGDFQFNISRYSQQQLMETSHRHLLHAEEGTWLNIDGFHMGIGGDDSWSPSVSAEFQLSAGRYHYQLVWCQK
T3 sequence (Q2UCU3 19-1005): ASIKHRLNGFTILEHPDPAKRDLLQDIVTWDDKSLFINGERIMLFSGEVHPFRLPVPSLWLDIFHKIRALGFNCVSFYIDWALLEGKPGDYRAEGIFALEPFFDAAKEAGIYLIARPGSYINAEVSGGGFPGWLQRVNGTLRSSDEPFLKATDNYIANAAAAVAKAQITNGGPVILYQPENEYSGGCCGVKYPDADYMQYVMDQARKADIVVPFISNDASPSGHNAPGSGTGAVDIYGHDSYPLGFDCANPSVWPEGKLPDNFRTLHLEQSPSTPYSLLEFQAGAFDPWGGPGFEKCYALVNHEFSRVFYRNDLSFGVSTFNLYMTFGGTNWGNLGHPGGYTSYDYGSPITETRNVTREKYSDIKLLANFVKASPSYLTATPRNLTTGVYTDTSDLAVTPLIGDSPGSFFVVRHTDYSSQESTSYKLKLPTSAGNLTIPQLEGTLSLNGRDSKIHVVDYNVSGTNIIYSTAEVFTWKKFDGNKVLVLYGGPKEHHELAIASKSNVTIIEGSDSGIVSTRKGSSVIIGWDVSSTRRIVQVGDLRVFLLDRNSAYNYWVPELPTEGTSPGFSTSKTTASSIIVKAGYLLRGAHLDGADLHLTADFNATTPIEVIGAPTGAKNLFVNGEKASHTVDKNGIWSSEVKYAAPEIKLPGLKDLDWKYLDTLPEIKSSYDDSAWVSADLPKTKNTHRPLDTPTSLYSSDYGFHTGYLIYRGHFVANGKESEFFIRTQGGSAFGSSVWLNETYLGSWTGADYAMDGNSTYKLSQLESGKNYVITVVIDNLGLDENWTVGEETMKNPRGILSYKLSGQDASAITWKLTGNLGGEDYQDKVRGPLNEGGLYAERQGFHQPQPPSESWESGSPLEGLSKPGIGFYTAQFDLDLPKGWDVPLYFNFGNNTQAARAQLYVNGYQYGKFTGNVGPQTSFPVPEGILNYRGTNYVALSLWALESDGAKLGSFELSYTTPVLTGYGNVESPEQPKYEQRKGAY

The inhibition is the drop in the measured response relative to a control, in per cent. On to `CCCCCCCCCO[C@@H]1CNC[C@@H](O)[C@H]1O` [compound 21, (3R, 4R, 5R)-4,5-Dihydroxy-3-(Nonyloxy) Piperidine], for which the inhibition at 100 µM in data set [1], in data set [2], in data set [3] and in data set [4] was 0% each time.

As a reminder, the melting point is the temperature, or range, at which the solid turns liquid. Consider `CCCCCCCCCCCCN[C@H]1CNC[C@@H](O)[C@H]1O` [compound 10, (3R, 4S, 5S)-3,4-Dihydroxy-5-(Dodecylamino) Piperidine], for which the melting point is 92 to 94 °C. The “toxicity / cell viability” value in data set [5] is “low cell viability; also recorded: remarkable toxicity”. 100 µM produced 0% inhibition in data set [1]. The inhibition at 100 µM in data set [2] amounted to 0%. In data set [3], this compound returned an inhibition at 100 µM of 0%. Also, in data set [4], the inhibition at 100 µM was 0%.

Take `CCCCCCCC[C@]1(O)CNC[C@@H](O)[C@H]1O` [compound 12, (3S, 4R, 5R)-3,4,5-Trihydroxy-3-Octyl-Piperidine]: the inhibition at 100 µM in data set [1], in data set [2], in data set [3] and in data set [4] was 0% each time.
